What all share (assay type): biochemical
Assay [1] addresses T1, PIP4K 2A (Homo sapiens, UniProt P48426).
T1 sequence (P48426 1-406): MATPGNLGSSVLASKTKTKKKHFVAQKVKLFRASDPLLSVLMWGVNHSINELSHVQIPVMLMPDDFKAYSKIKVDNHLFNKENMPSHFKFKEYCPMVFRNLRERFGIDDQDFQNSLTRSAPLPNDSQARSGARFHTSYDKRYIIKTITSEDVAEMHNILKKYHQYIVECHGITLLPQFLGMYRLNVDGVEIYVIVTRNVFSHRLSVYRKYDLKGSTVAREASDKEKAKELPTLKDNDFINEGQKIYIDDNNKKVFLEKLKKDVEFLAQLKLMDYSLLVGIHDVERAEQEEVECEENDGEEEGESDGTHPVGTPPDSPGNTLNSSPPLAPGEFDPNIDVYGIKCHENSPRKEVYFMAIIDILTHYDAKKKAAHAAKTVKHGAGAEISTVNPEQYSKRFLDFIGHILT
Nature of the assay: Kinase Assay PIP4K2 A (PIP4KtypeIIA inhibition assay). Further details: made in house; host or cells: E. coli. The conditions noted are these: compounds listed under IC50 bin headings. The source says: GST tagged PIP4KtypeIIA and B enzymes were overexpressed in E. Coli and purified to >80% homogeneity. Phosphatidyl inositol-5-phosphate (PI5P, Cat. #850152, Avanti Polar Lipids Inc.) was used as the lipid substrate and phosphatidyl ethanolamine (DOPE 18:1, Cat. #850725, Avanti Polar Lipids Inc.) was used as the carrier lipid for assays. Ultrapure ATP and GTP was purchased from Bellbrooke Labs. ADP Glo reagents were obtained from Promega. Transcreener FI reagent was obtained from Bellbrooke labs.
Enzyme preparation: GST-tagged PIP4KtypeIIA (5 uL, 1.43 mg/mL) was diluted (1:10) to 50 uL using HNE buffer. From the 1:10 diluted stock, a 6.4 uL aliquot was diluted further to 5 mL using HNE buffer to yield 5× enzyme stock (2.5 nM).
Lipid Preparation: In a 10 mL pyrex glass vial, 1 ug of PI5P and 1 ug of DOPE were suspended in 2.5 mL of HEPES buffer mix and 2.5 mL of H:E buffer. The contents were mixed and sonicated for 3 min to yield a translucent lipid stock.
Compound Preparation: Compounds were stored as 5 mM stocks in neat DMSO as room temperature in glass vials. 5 mM stocks were diluted to 2 mM and then serially diluted (3×) in neat DMSO in 96 well polypropylene plates. From the serially diluted stocks, 3 uL was delivered into 250 uL of 25% DMSO (in water) to generate 5× compound stocks. Typically, the highest compound conc. was 24 uM.
The assay volume was kept at 25 uL. To each well of the reaction plate, 10 uL of lipid stock (1:1 ratio PI5P:DOPE) was delivered. This was followed by the addition of 5 uL of compound in 25% DMSO. Then, to each well, 5 uL of 2.5 nM (5×) typeIIA enzyme was delivered. The contents were mixed well and incubated for 1 h at 27 C. After 1 h, reaction was initiated by adding 5 uL of 50 uM ATP and the contents were mixed well with a multi-channel pipetteman. The final concentration of the reagents are as follows: 50 mM HEPES, pH 7.3, 10 mM MgCl2, 20 mM NaCl, 0.01% v/v triton-X100, 5% DMSO, 10 uM ATP, 80 uM (2 ug) PI5P, 2 ug DOPE, and 0.5 nM PIP4KIIA. Typically, the highest conc. of compounds was 4.8 uM and the lowest conc. was 0.
After 1 hr, the reaction was quenched by adding 25 uL of ADP Glo reagent. The contents were incubated for 1 hr. Afterwards, 50 uL of kinase detection reagent was delivered. The contents were incubated for another hour. The luminescence was read using Molecular Devices Paradigm plate reader. […] The blanks were averaged and subtracted from all other wells. Using a calibration curve, RLU was converted to uM ADP (product). IC50 was calculated by plotting the residual activity (expressed as % No inhibitor control) vs. log [Inh. conc.]

In assay [2] the target is T2, PIP4K2B (Homo sapiens, UniProt P78356).
T2 construct: made in house; host or cells: E. coli
T2 sequence (P78356 1-416): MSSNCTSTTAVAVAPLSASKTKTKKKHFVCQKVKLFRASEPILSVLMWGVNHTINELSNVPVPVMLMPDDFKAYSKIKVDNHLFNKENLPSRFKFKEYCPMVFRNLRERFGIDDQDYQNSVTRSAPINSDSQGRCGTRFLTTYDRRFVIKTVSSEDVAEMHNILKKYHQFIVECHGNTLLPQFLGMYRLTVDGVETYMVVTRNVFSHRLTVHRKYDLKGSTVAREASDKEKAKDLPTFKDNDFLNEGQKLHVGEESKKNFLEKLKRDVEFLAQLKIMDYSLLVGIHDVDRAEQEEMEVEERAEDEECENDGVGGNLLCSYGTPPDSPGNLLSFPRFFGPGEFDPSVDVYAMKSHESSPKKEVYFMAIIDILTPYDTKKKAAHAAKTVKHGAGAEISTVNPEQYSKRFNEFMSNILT
Nature of the assay: Trans-FI P kinase assay PIP4K2B (PIP4KtypeIIB inhibition assay). The following applies: compounds listed under IC50 bin headings; 100 uM GTP; read-out: Trans-FI P kinase assays: PIP4K2B IC50. A digest of the protocol:
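Transcreener FI fluorescence read-out of GDP formed by E. coli-expressed GST-PIP4K2B (5 nM) using 100 uM GTP and 80 uM PI5P with DOPE carrier lipid, pH 7.3, 2 h reaction. Compounds (up to 4.8 uM) were preincubated with enzyme 1 h at 27 C; IC50 fitted from residual activity relative to no-inhibitor control.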

Assay [3] concerns the target T1, PIP4K 2A. Nature of the assay: ADP-glo kinase assay PIP4K 2A. Set-up: 4 nM PIP4K2A (full length protein, SignalChem); purchased SignalChem. The following applies: compounds listed under IC50 bin headings. In outline:
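Inhibition was calculated versus DMSO controls from ADP-Glo luminescence and fitted to IC50 over a 10-point, threefold series. Compound was first pre-incubated 15 min at room temperature with PIP4K2A (full-length; 4 nM in the enzyme/substrate mix) and PI(5)P diC8 (100 μM in that mix). The reaction then ran for 1 h after adding 60 μM ATP solution, in MOPS pH 7.2/MgCl2/Tween buffer.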
For orientation: ADP-Glo first removes unused ATP, then detects ADP through luciferase.

Turning to `CC1Oc2cc(C(=O)N(C)C)ccc2-c2cnc(Nc3cccnc3)cc21` (stereo not drawn) [Example 31, N,N,5-trimethyl-3-(pyridin-3-ylamino)-5H-chromeno[4,3-c]pyridine-8-carboxamide], the values for the IC50 in assay [1], in assay [2] and in assay [3] were 1 to 10 nM, 100 to 1000 nM and 1 to 10 nM, respectively.
Consider `CC1Oc2cc(C(=O)N(C)C)ccc2-c2cnc(Nc3cncc(N4CCCC4=O)c3)cc21` (stereo not drawn) [Example 32, N,N,5-trimethyl-3-((5-(2-oxopyrrolidin-1-yl)pyridin-3-yl)amino)-5H-chromeno[4,3-c]pyridine-8-carboxamide], for which the IC50 (usually the concentration that inhibits the measured activity by half) in assay [1] is at most 1 nM; in assay [2], 10 to 100 nM; in assay [3], 1 to 10 nM.
Regarding `CC1Oc2cc(C(=O)N(C)C)ccc2-c2cnc(Nc3cnc4c(c3)N3C(=O)CC[C@H]3CO4)cc21` (stereo partly drawn) [Example 33, N,N,5-trimethyl-3-(((S)-9-oxo-6a,7,8,9-tetrahydro-6H-pyrido[2,3-b]pyrrolo[1,2-d][1,4]oxazin-2-yl)amino)-5H-chromeno[4,3-c]pyridine-8-carboxamide], the figures for the IC50 in assay [1], in assay [2] and in assay [3] were at most 1 nM, 1 to 10 nM and 1 to 10 nM, respectively.
Turning to `CC1Oc2cc(N3CCCC3=O)ccc2-c2cnc(Nc3cncc(C4(C#N)CC4)c3)cc21` (stereo not drawn) [Example 39, 1-(5-((5-methyl-8-(2-oxopyrrolidin-1-yl)-5H-chromeno[4,3-c]pyridin-3-yl)amino)pyridin-3-yl)cyclopropane-1-carbonitrile], the results for the IC50 in assay [1] and in assay [2] were at most 1 nM and 10 to 100 nM, respectively.
Turning to `CC1Oc2cc(N3CCCC3=O)ccc2-c2cnc(Nc3cnc4c(c3)N3[C@H](CO4)CN(C)S3(=O)=O)cc21` (stereo partly drawn) [Example 187, 1-(5-methyl-3-(((S)-2-methyl-1,1-dioxido-2,3,3a,4-tetrahydropyrido[2,3-b][1,2,5]thiadiazolo[2,3-d][1,4]oxazin-8-yl)amino)-5H-chromeno[4,3-c]pyridin-8-yl)pyrrolidin-2-one], the half-inhibitory concentration (IC50) is 10 to 100 nM in assay [1] and 100 to 1000 nM in assay [2].
On to `C[C@@H]1Oc2cc(N3CCCC3=O)ccc2-c2cnc(Nc3cnc4c(c3)N3C(=O)CC[C@H]3CO4)cc21` [Example 193, (S)-2-(((S)-5-methyl-8-(2-oxopyrrolidin-1-yl)-5H-chromeno[4,3-c]pyridin-3-yl)amino)-6,6a,7,8-tetrahydro-9H-pyrido[2,3-b]pyrrolo[1,2-d][1,4]oxazin-9-one], for which the IC50 in assay [1] and in assay [3] was at most 1 nM throughout.
In the case of `CN(C)C/C=C/C(=O)Nc1ccc(C(=O)Nc2cncc(Nc3cc4c(cn3)-c3ccc(N5CCCC5=O)cc3OC4)c2)cc1` [Example 200, (E)-4-(4-(dimethylamino)but-2-enamido)-N-(5-((8-(2-oxopyrrolidin-1-yl)-5H-chromeno[4,3-c]pyridin-3-yl)amino)pyridin-3-yl)benzamide], the IC50 in assay [2] and in assay [3] was 1 to 10 nM throughout.
With `CC1Oc2cc(N3CCCC3=O)ccc2-c2cncc(Nc3ccncc3)c21` (stereo not drawn) [Example 203, 1-(5-methyl-4-(pyridin-4-ylamino)-5H-chromeno[4,3-c]pyridin-8-yl)pyrrolidin-2-one], the IC50 in assay [2] and in assay [3] was over 1000 nM each time.
On to `CC1Oc2cc(N3CCCC3=O)c(F)cc2-c2cnc(Nc3cnc4c(c3)N3C(=O)[C@](C)(O)C[C@H]3CO4)cc21` (stereo partly drawn) [Example 204, (6aS,8R)-2-((9-fluoro-5-methyl-8-(2-oxopyrrolidin-1-yl)-5H-chromeno[4,3-c]pyridin-3-yl)amino)-8-hydroxy-8-methyl-6,6a,7,8-tetrahydro-9H-pyrido[2,3-b]pyrrolo[1,2-d][1,4]oxazin-9-one], for which the IC50 in assay [2] was 10 to 100 nM; in assay [3], 1 to 10 nM.
In the same order, the values of `CC1Oc2cc(N3CCCC3=O)ccc2-c2cnc(Nc3cnc4c(c3)N3C(=O)[C@](C)(O)C[C@H]3CO4)cc21` (stereo partly drawn) [Example 205, (6aS,8R)-8-hydroxy-8-methyl-2-((5-methyl-8-(2-oxopyrrolidin-1-yl)-5H-chromeno[4,3-c]pyridin-3-yl)amino)-6,6a,7,8-tetrahydro-9H-pyrido[2,3-b]pyrrolo[1,2-d][1,4]oxazin-9-one] are 10 to 100 nM and 10 to 100 nM.
Consider `CC1Oc2cc(N3CCCC3=O)ccc2-c2cnc(Nc3cnc4c(c3)N3C(=O)C(O)C[C@H]3CO4)cc21` (stereo partly drawn) [Example 206, (6aS)-8-hydroxy-2-((5-methyl-8-(2-oxopyrrolidin-1-yl)-5H-chromeno[4,3-c]pyridin-3-yl)amino)-6,6a,7,8-tetrahydro-9H-pyrido[2,3-b]pyrrolo[1,2-d][1,4]oxazin-9-one], for which the values for the IC50 in assay [2] and in assay [3] were 1 to 10 nM and at most 1 nM, respectively.
Turning to `Cc1conc1-c1ccc2c(c1)OC(C)(C)c1cc(Nc3cnc4c(c3)N3C(=O)CC[C@H]3CO4)ncc1-2` [Example 209, (S)-2-((5,5-dimethyl-8-(4-methylisoxazol-3-yl)-5H-chromeno[4,3-c]pyridin-3-yl)amino)-6,6a,7,8-tetrahydro-9H-pyrido[2,3-b]pyrrolo[1,2-d][1,4]oxazin-9-one], the IC50 in assay [1] is at most 1 nM; in assay [2], 1 to 10 nM.
Regarding `Cn1cnnc1-c1ccc2c(c1)OC(C)(C)c1nc(Nc3cnc4c(c3)N3C(=O)CC[C@H]3CO4)ncc1-2` [Example 210, (S)-2-((5,5-dimethyl-8-(4-methyl-4H-1,2,4-triazol-3-yl)-5H-chromeno[3,4-d]pyrimidin-3-yl)amino)-6,6a,7,8-tetrahydro-9H-pyrido[2,3-b]pyrrolo[1,2-d][1,4]oxazin-9-one], the IC50 in assay [1] is at most 1 nM.
On to `Cn1cnnc1-c1ccc2c(c1)OC(C)(C)c1cc(Nc3cnc4c(c3)N3C(=O)CC[C@H]3CO4)ncc1-2` [Example 211, (S)-2-((5,5-dimethyl-8-(4-methyl-4H-1,2,4-triazol-3-yl)-5H-chromeno[4,3-c]pyridin-3-yl)amino)-6,6a,7,8-tetrahydro-9H-pyrido[2,3-b]pyrrolo[1,2-d][1,4]oxazin-9-one], for which the IC50 in assay [1] was at most 1 nM; in assay [2], 1 to 10 nM.

(Values after patent US11584763B2, “Chromenopyridine derivatives as phosphatidylinositol phosphate kinase inhibitors” (HIBERCELL, INC., priority 2017, dated 2023).)
